# Read-outs that look alike come from different tables or passages of the source.
# Columns and labels:
# [1] = target: Cys242 in human PIK3CA (157-299) (Homo sapiens (Human), UniProt P42336); assay: Covalent modification assay using MALDI-TOF MS; assay type: biochemical; settings: 4 h reaction time point
# Method in brief: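 PIK3CA (157-299), 3.33 or 1 μM in 20 mM HEPES, 150 mM NaCl, 2 mM MgCl2, pH 7.3, was incubated with compound at room temperature in the dark for 15 min, 30 min, 2 h or 4 h. Linear MALDI-TOF read-out; % modification = adduct peak height over summed heights of all protein species.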
# pAKT in BT474 cells = assay: Cell-based pAKT HTRF assay in BT474 cells; settings: BT474 cells, 4 hr incubation, read-out: pAKT inhibition IC50 in BT474 cells
# Method in brief: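 Treatment lasts 4 hr in DMEM/10% FBS at 0.25% DMSO over nine 3-fold dilutions from 3 μM. The lysate is then probed by HTRF.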
# [2] = 3.33 μM protein target, 1:7.5 protein to compound ratio (compounds 1-852)
# [3] = 1 μM protein target, 1:5 protein to compound ratio (compounds 853-1279)
# [4] = Homo sapiens, BT-474, Compounds 10-999
# Sequence of Cys242 in human PIK3CA (157-299) (P42336 157-299): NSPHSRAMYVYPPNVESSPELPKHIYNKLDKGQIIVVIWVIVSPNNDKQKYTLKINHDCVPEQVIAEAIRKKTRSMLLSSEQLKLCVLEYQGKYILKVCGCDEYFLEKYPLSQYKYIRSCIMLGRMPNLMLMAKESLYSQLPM
IC50 (pAKT in BT474 cells; Compounds 10-999) [nM],IC50 (pAKT in BT474 cells; Compounds 1000-1279) [nM],IC50 (pAKT in BT474 cells; [4]) [nM],SMILES,"% of modification [1, 2]","% of modification [1, 3]"
> 3000,–,–,C=CC(=O)N1CCn2cc(-c3nc(-c4ccc(=O)n(C)c4)c4ccsc4c3-c3ccc(F)cc3OCC3CCN(C)C(=O)C3)nc2C1 (stereo not drawn) [Compound 264],A (percent of modification of PIK3CA protein ≥75%),–
–,100 to 1000,–,C=CC(=O)N1CCc2nc(-c3nc(-c4ccc5c(c4)CCN(CC(F)F)CC5)c4ccsc4c3-c3c(F)cc(F)cc3OCCOC)sc2C1 [Compound 1270],–,A (percent of modification of PIK3CA protein ≥75%)
< 100,–,–,C=CC(=O)N1Cc2cc(-c3nc(-c4cnn(C)c4)c4ccsc4c3-c3c(F)cc(F)cc3OCCO)nn2C[C@H]1C [Compound 674],A (percent of modification of PIK3CA protein ≥75%),–
< 100,–,–,C=CC(=O)N1CCn2nc(-c3nc(-c4ccc5nn(C)cc5c4)c4ccsc4c3-c3c(F)cc(F)cc3OC[C@@H](C)O)cc2[C@H]1C [Compound 760],A (percent of modification of PIK3CA protein ≥75%),–
–,100 to 1000,–,CC#CC(=O)N1CCn2nc(-c3nc(-c4ccc5c(cnn5C)c4)c4ccsc4c3-c3c(F)cc(F)cc3OCCOC)cc2[C@H]1C [Compound 1227],–,B (50%<percent of modification <75%)
< 100,–,–,C=CC(=O)N1CCn2nc(-c3nc(-c4ccc5nn(C)cc5c4)c4ccsc4c3-c3c(F)cc(F)cc3OCCOC)cc2[C@H]1C [Compound 749],A (percent of modification of PIK3CA protein ≥75%),–
< 100,–,–,C=CC(=O)N1Cc2cc(-c3nc(-c4cnn(CC(C)(C)O)c4)c4ccsc4c3-c3c(F)cc(F)cc3OCCOC)nn2[C@@H](C)C1 [Compound 491],A (percent of modification of PIK3CA protein ≥75%),–
–,< 100,–,C=CC(=O)N1CCn2nc(-c3nc(-c4cc5cnn(C)c5cc4F)c4ccsc4c3-c3c(F)cc(F)cc3OCCOC)cc2[C@H]1C [Compound 1164],–,A (percent of modification of PIK3CA protein ≥75%)
< 100,–,–,C=CC(=O)N1CCn2nc(-c3nc(-c4ccc5c(c4)CNC5=O)c4ccsc4c3-c3c(F)cc(F)cc3OC[C@@H](C)O)cc2[C@H]1C [Compound 762],A (percent of modification of PIK3CA protein ≥75%),–
< 100,–,–,C=CC(=O)N1CCn2nc(-c3nc(-c4cnc5c(c4)CN(C)CC5)c4ccsc4c3-c3ccc(F)cc3OC(C)C)cc2C1 [Compound 283],A (percent of modification of PIK3CA protein ≥75%),–
< 100,–,–,"C=CC(=O)N1CCn2nc(-c3nc(-c4ccc5c(cnn5C)c4)c4ccsc4c3-c3c(F)cc(F)cc3OCCO)cc2[C@@H]1C [Compound 663, 1-((S)-2-((S)-7-(2,4-difluoro-6-(2-hydroxyethoxy)phenyl)-4-(1-methyl-1H-indazol-5-yl)thieno[3,2-c]pyridin-6-yl)-4-methyl-6,7-dihydropyrazolo[1,5-a]pyrazin-5(4H)-yl)prop-2-en-1-one]",A (percent of modification of PIK3CA protein ≥75%),–
–,–,< 100,"C=CC(=O)N1CCn2nc(-c3nc(-n4cc(C)cn4)c4ccsc4c3-c3ccc(F)cc3OC(C)C)cc2C1 [Compound 317, 1-[2-[7-(4-fluoro-2-isopropoxy-phenyl)-4-(4-methylpyrazol-1-yl)thieno[3,2-c]pyridin-6-yl]-6,7-dihydro-4H-pyrazolo[1,5-a]pyrazin-5-yl]prop-2-en-1-one]",A (percent of modification of PIK3CA protein ≥75%),–
100 to 1000,–,–,C=C(F)C(=O)N1CCn2nc(-c3nc(-c4ccc5c(c4)[C@@H](O)CC5)c4ccsc4c3-c3ccc(F)cc3OC(C)C)cc2C1 [Compound 308],A (percent of modification of PIK3CA protein ≥75%),–
–,–,< 100,"C=CC(=O)N1CCn2nc(-c3nc(-c4ccc5c(c4)CCNC5)c4ccsc4c3-c3ccc(F)cc3OCCOC)nc2C1 [Compound 105, 1-[2-[7-[4-fluoro-2-(2-methoxyethoxy)phenyl]-4-(1,2,3,4-tetrahydroisoquinolin-6-yl)thieno[3,2-c]pyridin-6-yl]-6,8-dihydro-5H-[1,2,4]triazolo[1,5-a]pyrazin-7-yl]prop-2-en-1-one]",A (percent of modification of PIK3CA protein ≥75%),–
< 100,–,–,C=CC(=O)N1CCn2nc(-c3nc(-c4cnn(C)c4)c4ccsc4c3-c3c(F)cc(F)cc3OCC(C)O)cc2C1C (stereo not drawn) [Compound 551],A (percent of modification of PIK3CA protein ≥75%),–
> 3000,–,–,C=CC(=O)N1CC(n2cc(-c3nc(-c4ccc5c(c4)CNC(=O)C5)c4ccsc4c3-c3ccc[nH]c3=O)cn2)C1 [Compound 91],D (percent of modification <25%),–
< 100,–,–,C=CC(=O)N1Cc2cc(-c3nc(-c4ccc5c(c4)CCN(C)C5)c4ccsc4c3-c3c(F)cc(F)cc3OCC)nn2CC1C (stereo not drawn) [Compound 503],A (percent of modification of PIK3CA protein ≥75%),–

IC50 (pAKT in BT474 cells; Compounds 10-999) [nM],IC50 (pAKT in BT474 cells; Compounds 1000-1279) [nM],IC50 (pAKT in BT474 cells; [4]) [nM],SMILES,"% of modification [1, 2]","% of modification [1, 3]"
–,–,100 to 1000,"C=CC(=O)N1CCc2nc(-c3nc(C4CCN(C(C)C)CC4)c4ccsc4c3-c3ccc(F)cc3OCCOC)sc2C1 [Compound 143, 1-(2-(7-(4-fluoro-2-(2-methoxyethoxy)phenyl)-4-(1-isopropylpiperidin-4-yl)thieno[3,2-c]pyridin-6-yl)-6,7-dihydrothiazolo[5,4-c]pyridin-5(4H)-yl)prop-2-en-1-one]",A (percent of modification of PIK3CA protein ≥75%),–
< 100,–,–,C=CC(=O)N1CCn2nc(-c3nc(-c4ccc5c(c4)CCN(C)C5)c4ccsc4c3-c3c(F)cc(F)cc3OC[C@@H](C)O)cc2[C@@H]1C [Compound 546],A (percent of modification of PIK3CA protein ≥75%),–
< 100,–,–,C=CC(=O)N1CCc2nc(-c3nc(-c4cnn(CC(F)F)c4)c4ccsc4c3-c3ccc(F)cc3OCCOC)sc2C1 [Compound 125],A (percent of modification of PIK3CA protein ≥75%),–
100 to 1000,–,–,C=CC(=O)N1CC[C@H](n2cc(-c3nc(-c4cnn(C)c4)c4ccsc4c3-c3c(F)cc(F)cc3OC(C)C)cn2)C1 [Compound 358],A (percent of modification of PIK3CA protein ≥75%),–
< 100,–,–,C=CC(=O)N1CCc2nc(-c3nc(-c4ccc5c(c4)CNCCC5)c4ccsc4c3-c3ccc(F)cc3OCCOC)sc2C1 [Compound 168],A (percent of modification of PIK3CA protein ≥75%),–
< 100,–,–,"C=CC(=O)N1CCc2ccc(-c3nc(-c4cnc5c(c4)CNC(=O)C5)c4ccsc4c3-c3c(F)cc(F)cc3OCCOC)cc2C1 [Compound 580, (S)-3-(6-(2-acryloyl-1,2,3,4-tetrahydroisoquinolin-7-yl)-7-(2,4-difluoro-6-(2-methoxyethoxy)phenyl)thieno[3,2-c]pyridin-4-yl)-5,8-dihydro-1,6-naphthyridin-7(6H)-one]",A (percent of modification of PIK3CA protein ≥75%),–
–,< 100,–,C=CC(=O)N1CCn2nc(-c3nc(-c4ccc5c(cnn5CCN(C)C)c4)c4ccsc4c3-c3c(F)cc(F)cc3OCCOC)cc2C1C (stereo not drawn) [Compound 1105],–,A (percent of modification of PIK3CA protein ≥75%)
< 100,–,–,C=CC(=O)N1CCn2nc(-c3nc(-c4cn(C)cn4)c4ccsc4c3-c3c(F)cc(F)cc3OC[C@@H](C)O)cc2[C@H]1C [Compound 744],A (percent of modification of PIK3CA protein ≥75%),–
< 100,–,–,C=CC(=O)N1CCn2nc(-c3nc(-c4cnnc(C)c4)c4ccsc4c3-c3c(F)cc(F)cc3OCCOC)cc2C1C (stereo not drawn) [Compound 790],A (percent of modification of PIK3CA protein ≥75%),–
< 100,–,–,C=CC(=O)N1C[C@H](C)n2nc(-c3nc(-c4ccc5ncn(C)c5c4)c4ccsc4c3-c3c(F)cc(F)cc3OCCOC)cc2[C@@H]1C [Compound 602],A (percent of modification of PIK3CA protein ≥75%),–
100 to 1000,–,–,C=CC(=O)N1CC(n2cc(-c3nc(N4CCC5(CC4)CS(=O)(=O)C5)c4ccsc4c3-c3ccc(F)cc3OCCOC)cn2)C1 [Compound 149],A (percent of modification of PIK3CA protein ≥75%),–
< 100,–,–,C=CC(=O)N1CCn2nc(-c3nc(-c4ccc5cn(C)nc5c4)c4ccsc4c3-c3c(F)cc(F)cc3OCCOC)cc2C1C (stereo not drawn) [Compound 766],A (percent of modification of PIK3CA protein ≥75%),–
< 100,–,–,C=CC(=O)N1Cc2cc(-c3nc(-c4ccc5cn(C)nc5c4)c4ccsc4c3-c3c(F)cc(F)cc3OCCO)nn2C(C)C1 (stereo not drawn) [Compound 783],A (percent of modification of PIK3CA protein ≥75%),–
–,100 to 1000,–,C=CC(=O)N1CCn2nc(-c3nc(N4CC5CCC(C4)N5C(C)=O)c4ccsc4c3-c3c(F)cc(F)cc3OCCOC)cc2C1C (stereo not drawn) [Compound 1064],–,C (25%≤percent of modification <50%)
–,< 100,–,COCCOc1cc(F)cc(F)c1-c1c(-c2cc3n(n2)CCN(C(=O)C=CCN(C)C)C3C)nc(-c2ccc3c(cnn3C)c2)c2ccsc12 (stereo not drawn) [Compound 1232],–,A (percent of modification of PIK3CA protein ≥75%)
–,100 to 1000,–,C=C(F)C(=O)N1CCn2nc(-c3nc(-c4ccc5c(cnn5C)c4)c4ccsc4c3-c3c(F)cc(F)cc3OCCOC)cc2[C@H]1C [Compound 1226],–,D (percent of modification <25%)
